# In patent US20250115598A1 (Anaxis Pharma Pty Ltd, priority 2021, published 2025):
# What was measured:
# human RIPK1 = human RIPK1 (Homo sapiens (Human), UniProt Q13546); test: KINOMEscan binding assay, human RIPK1; details: Table 21
# Description: (§1) Binding affinity of the test compounds for human MLKL (full length), mouse MLKL (full length), human RIPK1 and human RIPK3 was determined using the KINOMEscan™ technology developed by DiscoverX (USA; http://www.discoverx.com). The assay was conducted according to manufacturer instructions.
# (§2) Kinase assays. For most assays, kinase-tagged T7 phage strains were grown in parallel in 24-well blocks in an E. coli host derived from the BL21 strain. E. coli were grown to log-phase and infected with T7 phage from a frozen stock (multiplicity of infection=0.4) and incubated with shaking at 32° C. until lysis (90-150 minutes). The lysates were centrifuged (6,000×g) and filtered (0.2 μm) to remove cell debris. The remaining kinases were produced in HEK-293 cells and subsequently tagged with DNA for qPCR detection. […] The liganded beads were blocked with excess biotin and washed with blocking buffer (SeaBlock (Pierce), 1% BSA, 0.05% Tween 20, 1 mM DTT) to remove unbound ligand and to reduce non-specific phage binding. […] All reactions were performed in polypropylene 384-well plates in a final volume of 20 μL. […] The kinase concentration in the eluates was measured by qPCR.
# (§3) An 11-point 3-fold serial dilution of each test compound was prepared in 100% DMSO at 100× final test concentration and subsequently diluted to 1× in the assay (final DMSO concentration=1%). Most Kos were determined using a compound top concentration=30,000 nM.
# (§4) KD for each test compound was calculated with a standard dose-response curve using the Hill equation (equation (1)): […]
# (§5) The Hill Slope was set to −1.
# (§6) Curves were fitted using a non-linear least square fit with the Levenberg-Marquardt algorithm.
# human RIPK3 = human RIPK3 (Homo sapiens (Human), UniProt Q9Y572); test: KINOMEscan binding assay, human RIPK3; details: Table 21
# human RIPK3, sequence (Q9Y572 whole entry): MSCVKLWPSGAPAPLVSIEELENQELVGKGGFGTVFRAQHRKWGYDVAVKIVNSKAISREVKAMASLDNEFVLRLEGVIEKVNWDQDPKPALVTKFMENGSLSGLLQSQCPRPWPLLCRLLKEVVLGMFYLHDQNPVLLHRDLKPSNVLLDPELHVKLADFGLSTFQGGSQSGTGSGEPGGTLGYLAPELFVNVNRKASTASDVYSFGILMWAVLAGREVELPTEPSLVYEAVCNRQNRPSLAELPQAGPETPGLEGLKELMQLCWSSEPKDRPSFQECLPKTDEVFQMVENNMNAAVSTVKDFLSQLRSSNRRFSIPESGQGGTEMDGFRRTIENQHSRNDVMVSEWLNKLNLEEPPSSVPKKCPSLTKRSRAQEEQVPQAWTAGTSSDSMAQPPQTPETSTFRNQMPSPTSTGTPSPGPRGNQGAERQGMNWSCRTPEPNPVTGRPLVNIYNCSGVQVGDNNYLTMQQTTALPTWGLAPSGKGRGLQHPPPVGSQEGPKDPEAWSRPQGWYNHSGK
# Description: as §1, §2, §3, §4, §5, §6
# human RIPK1, sequence (Q13546 whole entry): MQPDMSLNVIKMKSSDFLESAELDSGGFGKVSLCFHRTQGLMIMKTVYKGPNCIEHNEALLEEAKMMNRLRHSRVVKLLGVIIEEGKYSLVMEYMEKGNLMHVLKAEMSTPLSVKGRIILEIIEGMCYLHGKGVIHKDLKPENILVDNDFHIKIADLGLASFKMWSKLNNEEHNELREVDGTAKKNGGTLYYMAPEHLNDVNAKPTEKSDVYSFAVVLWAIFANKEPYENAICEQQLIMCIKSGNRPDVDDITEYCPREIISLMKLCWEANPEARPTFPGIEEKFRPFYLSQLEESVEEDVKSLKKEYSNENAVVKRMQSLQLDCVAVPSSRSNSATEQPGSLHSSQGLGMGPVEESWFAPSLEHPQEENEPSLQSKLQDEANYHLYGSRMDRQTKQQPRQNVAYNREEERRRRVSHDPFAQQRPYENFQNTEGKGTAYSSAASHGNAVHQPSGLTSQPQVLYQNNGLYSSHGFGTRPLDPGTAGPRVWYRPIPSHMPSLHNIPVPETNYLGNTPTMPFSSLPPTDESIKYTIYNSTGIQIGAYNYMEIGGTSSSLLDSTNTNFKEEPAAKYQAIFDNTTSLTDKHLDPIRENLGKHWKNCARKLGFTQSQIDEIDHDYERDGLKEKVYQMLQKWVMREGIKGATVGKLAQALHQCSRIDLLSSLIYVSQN
SMILES,Kd (human RIPK1) [µM],Kd (human RIPK3) [µM]
"C[C@H](Oc1cc(-c2cnn3ccnc(N)c23)ccc1NS(=O)(=O)C(F)F)c1ccc(F)cc1 [Compound 22, (S)—N-(4-(4-aminopyrazolo[1,5-a]pyrazin-3-yl)-2-(1-(4-fluorophenyl)ethoxy)phenyl)-1,1-difluoromethanesulfonamide]",> 10,> 10
"C[C@H](Oc1cc(-c2nn(C)c3c(-c4ccnc(C(F)F)c4)cnc(N)c23)ccc1NS(=O)(=O)C(F)F)c1ccc(F)cc1 [Compound 57, (S)-N-(4-(4-amino-7-(2-(difluoromethyl)pyridin-4-yl)-1-methyl-1H-pyrazolo[4,3-c]pyridin-3-yl)-2-(1-(4-fluorophenyl)ethoxy)phenyl)-1,1-difluoromethanesulfonamide]",> 10,0.1 to 10
"C[C@H](Oc1cc(-c2nn(C)c3c(-c4cnn(C5CCN(CC(F)(F)F)C(C)(C)C5)c4)cnc(N)c23)ccc1NS(=O)(=O)C(F)F)c1ccc(F)cc1 (stereo partly drawn) [Compound 167, N-(4-(4-amino-7-(1-(2,2-dimethyl-1-(2,2,2-trifluoroethyl)piperidin-4-yl)-1H-pyrazol-4-yl)-1-methyl-1H-pyrazolo[4,3-c]pyridin-3-yl)-2-((S)-1-(4-fluorophenyl)ethoxy)phenyl)-1,1-difluoromethanesulfonamide]",> 10,> 10
"CCS(=O)(=O)Nc1ccc(-c2nn(C)c3c(-c4cnn(C5CCOCC5)c4)cnc(N)c23)cc1O[C@@H](C)c1ccc(F)cc1 [Compound 45, (S)-N-(4-(4-amino-1-methyl-7-(1-(tetrahydro-2H-pyran-4-yl)-1H-pyrazol-4-yl)-1H-pyrazolo[4,3-c]pyridin-3-yl)-2-(1-(4-fluorophenyl)ethoxy)phe-nyl)ethanesulfonamide]",> 10,0.1 to 10
"Cc1nn(C2CCN(C)C(C)(C)C2)cc1-c1cnc(N)c2c(-c3ccc(NS(=O)(=O)C(F)F)c(O[C@@H](C)c4ccc(F)cc4)c3)nn(C)c12 (stereo partly drawn) [Compound 156, N-(4-(4-amino-1-methyl-7-(3-methyl-1-(1,2,2-trimethylpiperidin-4-yl)-1H-pyrazol-4-yl)-1H-pyrazolo[4,3-c]pyridin-3-yl)-2-((S)-1-(4-fluorophenyl)ethoxy)phenyl)-1,1-difluoromethanesulfonamide]",> 10,> 10
"C[C@H](Oc1cc(-c2nn(C)c3c(C4CCN(C)CC4)cnc(N)c23)ccc1NS(=O)(=O)C(F)F)c1ccc(F)cc1 [Compound 42, (S)—N-(4-(4-amino-1-methyl-7-(1-methylpiperidin-4-yl)-1H-pyrazolo[4,3-c]pyridin-3-yl)-2-(1-(4-fluorophenyl)ethoxy)phenyl)-1,1-difluoromethanesulfonamide]",> 10,> 10
"CCS(=O)(=O)Nc1ccc(-c2cnn3ccnc(N)c23)cc1OCc1ccc(F)cc1 [Compound 64, N-(4-(4-Aminopyrazolo[1,5-a]pyrazin-3-yl)-2-((4-fluorophenyl)methoxy)phenyl)ethane-1-sulfonamide]",> 10,> 10
"C[C@H](Oc1cc(-c2nn(C)c3c(-c4ccc(N5CCN(C)CC5)nc4)cnc(N)c23)ccc1NS(=O)(=O)C(F)F)c1ccc(F)cc1 [Compound 107, (S)-N-(4-(4-amino-1-methyl-7-(6-(4-methylpiperazin-1-yl)pyridin-3-yl)-1H-pyrazolo[4,3-c]pyridin-3-yl)-2-(1-(4-fluorophenyl)ethoxy)phenyl)-1,1-difluoromethanesulfonamide]",> 10,> 10
"Nc1n[nH]c2ccnc(-c3ccc(NS(=O)(=O)CC(F)(F)F)c(OCc4ccc(F)cc4)c3)c12 [Compound 65, N-(4-(3-amino-1H-pyrazolo[4,3-c]pyridin-4-yl)-2-((4-fluorophenyl)methoxy)phenyl)-2,2,2-trifluoroethane-1-sulfonamide]",> 10,> 10
"C[C@H](Oc1cc(-c2nn(C)c3c(-c4cc(C#N)n(C)c4)cnc(N)c23)ccc1NS(=O)(=O)C(F)F)c1ccc(F)cc1 [Compound 83, (S)-N-(4-(4-amino-7-(5-cyano-1-methyl-1H-pyrrol-3-yl)-1-methyl-1H-pyrazolo[4,3-c]pyridin-3-yl)-2-(1-(4-fluorophenyl)ethoxy)phenyl)-1,1-difluoromethanesulfonamide]",> 10,> 10
"C[C@H](Oc1cc(-c2nn(C)c3c(-c4cnc(N5CCCC5)nc4)cnc(N)c23)ccc1NS(=O)(=O)C(F)F)c1ccc(F)cc1 [Compound 114, (S)-N-(4-(4-amino-1-methyl-7-(2-(pyrrolidin-1-yl)pyrimidin-5-yl)-1H-pyrazolo[4,3-c]pyridin-3-yl)-2-(1-(4-fluorophenyl)ethoxy)phenyl)-1,1-difluoromethanesulfonamide]",> 10,> 10

# Second part, the compound after the results:
Kd (human RIPK1) [µM],Kd (human RIPK3) [µM],SMILES
> 10,> 10,"C[C@H](Oc1cc(-c2nn(C)c3c(-c4ccn(C)c4)cnc(N)c23)ccc1NS(=O)(=O)C(F)F)c1ccc(F)cc1 [Compound 126, (S)-N-(4-(4-amino-1-methyl-7-(1-methyl-1H-pyrrol-3-yl)-1H-pyrazolo[4,3-c]pyridin-3-yl)-2-(1-(4-fluorophenyl)ethoxy)phenyl)-1,1-difluoromethanesulfonamide]"
> 10,> 10,"C[C@H](Oc1cc(-c2nn(C)c3c(-c4cnn(CC(F)(F)F)c4)cnc(N)c23)ccc1NS(=O)(=O)C(F)F)c1ccc(F)cc1 [Compound 116, (S)-N-(4-(4-amino-1-methyl-7-(1-(2,2,2-trifluoroethyl)-1H-pyrazol-4-yl)-1H-pyrazolo[4,3-c]pyridin-3-yl)-2-(1-(4-fluorophenyl)ethoxy)phenyl)-1,1-difluoromethanesulfonamide]"
> 10,> 10,"C[C@H](Oc1cc(-c2nn(C)c3c(-c4cnn(CC5CCCN5)c4)cnc(N)c23)ccc1NS(=O)(=O)C(F)F)c1ccc(F)cc1 (stereo partly drawn) [Compound 88, N-(4-(4-amino-1-methyl-7-(1-(pyrrolidin-2-ylmethyl)-1H-pyrazol-4-yl)-1H-pyrazolo[4,3-c]pyridin-3-yl)-2-((S)-1-(4-fluorophenyl)ethoxy)phenyl)-1,1-difluoromethane-sulfonamide]"
> 10,> 10,"C[C@H](Oc1cc(-c2nn(C)c3c(-c4cnc(N(C)C)nc4)cnc(N)c23)ccc1NS(=O)(=O)C(F)F)c1ccc(F)cc1 [Compound 106, (S)-N-(4-(4-amino-7-(2-(dimethylamino)pyrimidin-5-yl)-1-methyl-1H-pyrazolo[4,3-c]pyridin-3-yl)-2-(1-(4-fluorophenyl)ethoxy)phenyl)-1,1-difluoromethanesulfonamide]"
> 10,> 10,"C[C@H](Oc1cc(-c2nn(C)c3c(C4=CCOCC4)cnc(N)c23)ccc1NS(=O)(=O)C(F)F)c1ccc(F)cc1 [Compound 43, (S)-N-(4-(4-amino-7-(3,6-dihydro-2H-pyran-4-yl)-1-methyl-1H-pyrazolo[4,3-c]pyridin-3-yl)-2-(1-(4-fluorophenyl)ethoxy)phenyl)-1,1-difluoromethanesulfonamide]"
0.1 to 10,> 10,"CC1CN(C)CC(C)C1n1cc(-c2cnc(N)c3c(-c4ccc(NS(=O)(=O)C(F)F)c(O[C@@H](C)c5ccc(F)cc5)c4)nn(C)c23)cn1 (stereo partly drawn) [Compound 172, N-(4-(4-amino-1-methyl-7-[1-(1,3,5-trimethylpiperidin-4-yl)-1H-pyrazol-4-yl]-1H-pyrazolo[4,3-c]pyridin-3-yl}-2-[(1S)-1-(4-fluorophenyl)ethoxy]phenyl)-1,1-difluoromethanesulfonamide]"
